For series [1], the target named is T1, Human Dectin-1b (Homo sapiens, UniProt Q9BXN2).
T1 construct: expressed in transfected cells; host or cells: HEK293
T1 sequence (Q9BXN2 1-201 isoform Q9BXN2-2): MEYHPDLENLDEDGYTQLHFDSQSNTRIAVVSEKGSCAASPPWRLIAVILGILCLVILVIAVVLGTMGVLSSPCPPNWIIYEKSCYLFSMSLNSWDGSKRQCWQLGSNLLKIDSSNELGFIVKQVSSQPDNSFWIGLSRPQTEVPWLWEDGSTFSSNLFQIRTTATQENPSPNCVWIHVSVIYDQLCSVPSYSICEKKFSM
Kind of series: Human CLR antagonist screening, NF-κB SEAP reporter in HEK293 cells. The format is cell-based. As to conditions: antagonist mode, Ami 1 μM. As to the method:
Toll-Like Receptor (TLR), NOD-Like Receptor (NLR) and C-Type Lectin Receptor (CLR) stimulation were tested by assessing NF-κB activation in HEK293 cells expressing a given TLR, NLR or CLR. The activity of the test articles was tested at one concentration and compared to control ligands. These steps were performed in triplicate. hDectin-1a and hDectin-1b: WGP Soluble (0-glucan from S. cerevisiae) at 10 ng/mL Antagonist: 5 ng/mL. Curdlan at 100 μg/mL. Antagonist: 100 μg/mL. Zymosan Depleted (hot alkali treated S. cerevisiae) at 5 μg/mL Antagonist: 3 μg/mL. In a 96-well plate (200 μL total volume) containing the appropriate cells (50,000-75,000 cells/well), 20 μL of the test article or the positive control ligand was added to the wells. For the antagonist assay, the test article was incubated with the cells, at 37° C. with 5% CO2, for 30 minutes prior to the addition of the positive control ligand to the wells. The media added to the wells was designed for the detection of NF-κB induced SEAP expression. After a 16-24 hr incubation the optical density (OD) was read at 650 nm on a Molecular Devices SpectraMax 340PC absorbance detector. Fold induction (ratio of average induced value to average non-induced value) was determined for each TLR, NOD1, NOD2, Dectin-1a, Dectin-1b.

Series [2] concerns the target T2, human MDA-5 (Homo sapiens, UniProt Q9BYX4).
T2 construct: expressed in transfected cells; host or cells: HEK293
T2 sequence (Q9BYX4 1-1025): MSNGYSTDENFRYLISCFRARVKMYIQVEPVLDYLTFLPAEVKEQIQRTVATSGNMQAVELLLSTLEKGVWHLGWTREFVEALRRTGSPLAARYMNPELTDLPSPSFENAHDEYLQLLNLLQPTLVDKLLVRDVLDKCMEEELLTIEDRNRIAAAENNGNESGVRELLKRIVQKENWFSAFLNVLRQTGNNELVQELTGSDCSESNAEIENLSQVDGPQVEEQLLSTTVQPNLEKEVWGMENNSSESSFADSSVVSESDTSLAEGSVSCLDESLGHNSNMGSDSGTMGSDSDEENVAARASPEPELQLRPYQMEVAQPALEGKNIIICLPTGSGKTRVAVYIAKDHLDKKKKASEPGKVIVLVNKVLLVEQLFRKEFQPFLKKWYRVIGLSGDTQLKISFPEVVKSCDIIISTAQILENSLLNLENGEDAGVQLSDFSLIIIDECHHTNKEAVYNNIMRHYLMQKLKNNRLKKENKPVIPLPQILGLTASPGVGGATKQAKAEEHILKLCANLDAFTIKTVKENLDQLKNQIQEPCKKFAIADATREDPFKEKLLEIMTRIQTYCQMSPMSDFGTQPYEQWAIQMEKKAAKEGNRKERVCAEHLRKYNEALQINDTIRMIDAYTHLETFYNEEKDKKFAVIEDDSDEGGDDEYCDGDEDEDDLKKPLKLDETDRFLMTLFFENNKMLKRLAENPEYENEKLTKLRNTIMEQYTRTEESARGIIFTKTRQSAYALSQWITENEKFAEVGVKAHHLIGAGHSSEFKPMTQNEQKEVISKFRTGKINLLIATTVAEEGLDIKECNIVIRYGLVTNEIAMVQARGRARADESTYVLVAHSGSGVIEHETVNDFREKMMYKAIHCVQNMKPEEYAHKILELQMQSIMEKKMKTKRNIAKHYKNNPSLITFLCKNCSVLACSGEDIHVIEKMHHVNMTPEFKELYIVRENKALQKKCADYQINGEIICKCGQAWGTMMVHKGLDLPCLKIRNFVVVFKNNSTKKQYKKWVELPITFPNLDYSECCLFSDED
Kind of series: Human RLR antagonist screening, IRF3 luciferase reporter in HEK293 cells. Type of series: cell-based. As to conditions: antagonist mode, Ami 1 μM. As to the method: (§1) RIG-I and MDA-5 stimulation were tested by assessing IRF3 activation in HEK293 cells expressing human RIG-I or MDA-5 genes. The activity of the test articles was tested on human RIG-I and MDA-5 expressing cells as a potential agonist or antagonist. The test articles were evaluated at one concentration and compared to control ligands. This step was performed in triplicate. The results are provided as Relative Luminescence Units (RLUs). RIG-I/MDA-5: Poly(I:C)/LyoVec at 1 μg/mL Antagonist: 500 ng/mL. 5′ppp-dsRNA/LyoVec at 1 μg/mL Antagonist: 500 ng/mL. hIFNα at 1000 IU/mL. Antagonist: 100 IU/mL. In a 96-well plate (200 μL total volume) containing the appropriate cells (25,000-50,000 cells/well), 20 μL of the test article or of the positive control ligand was added to the wells. For the antagonist assay, the test article was incubated with the cells, at 37° C. with 5% CO2, for 30 minutes prior to the addition of the positive control ligand to the wells. After 20 hour incubation, activation of the IRF pathway was monitored using a luciferase detection assay. Luciferase activity was assayed in triplicate from the supernatant of the induced cells, and the relative luminescence units (RLUs) are detected by a Promega GloMax Luminometer. Fold induction (ratio of average induced value to average non-induced value).
On the technique in general: In a reporter assay the amount or activity of a reporter protein is the signal.

Series [3] addresses T3, human RIG-I (Homo sapiens, UniProt O95786).
T3 construct: expressed in transfected cells; host or cells: HEK293
Described as above. The format is cell-based. Conditions: antagonist mode, Ami 1 μM. As to the method:
as §1

For series [4] the following is noted: taken orally; cited from earlier work.

T3 sequence (O95786 whole entry): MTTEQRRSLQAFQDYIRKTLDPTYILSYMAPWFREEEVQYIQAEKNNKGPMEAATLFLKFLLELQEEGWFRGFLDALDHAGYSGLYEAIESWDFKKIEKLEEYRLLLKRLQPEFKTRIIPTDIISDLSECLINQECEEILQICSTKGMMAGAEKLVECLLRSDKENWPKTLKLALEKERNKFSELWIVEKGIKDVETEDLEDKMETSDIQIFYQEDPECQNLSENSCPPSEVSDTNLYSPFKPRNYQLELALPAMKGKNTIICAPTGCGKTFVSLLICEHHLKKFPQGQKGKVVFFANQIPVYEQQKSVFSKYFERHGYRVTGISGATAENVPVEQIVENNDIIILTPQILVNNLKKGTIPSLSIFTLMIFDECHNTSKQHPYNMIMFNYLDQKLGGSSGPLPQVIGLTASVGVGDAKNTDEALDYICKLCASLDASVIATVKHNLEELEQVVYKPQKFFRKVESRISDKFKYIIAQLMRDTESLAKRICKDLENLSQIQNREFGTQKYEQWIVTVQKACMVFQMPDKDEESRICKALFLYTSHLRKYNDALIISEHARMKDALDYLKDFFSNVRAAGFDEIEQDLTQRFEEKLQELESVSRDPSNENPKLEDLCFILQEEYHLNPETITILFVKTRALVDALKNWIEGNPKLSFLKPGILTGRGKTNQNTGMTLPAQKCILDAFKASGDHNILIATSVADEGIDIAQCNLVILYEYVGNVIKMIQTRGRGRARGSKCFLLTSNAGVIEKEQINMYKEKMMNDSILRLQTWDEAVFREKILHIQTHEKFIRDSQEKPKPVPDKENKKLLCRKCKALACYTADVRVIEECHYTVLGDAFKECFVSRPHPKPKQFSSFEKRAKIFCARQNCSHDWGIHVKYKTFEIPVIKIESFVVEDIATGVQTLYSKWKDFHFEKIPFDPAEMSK

For the molecule `CN(C)CCC=C1c2ccccc2CCc2ccccc21` [Amitriptyline], the “Fold Induction” value in series [1] (+Curdlan 100 μg/mL, No Sample 4, Control− 1) is on record as 4; in series [1] (+WGP Soluble 5 ng/mL, No Sample 1, Control− 1) it was 1; in series [1] (+Zymosan Depleted 3 μg/mL, No Sample 7, Control− 1), “slight inhibitory effect”; in series [1] (+Zymosan Depleted 3 μg/mL, No Sample 7, Control− 1, listed as Ami), 6. Besides, the “Fold induction (ratio of average induced value to average non-induced value)” value in series [2] (5′ppp-dsRNA/LyoVec 500 ng/mL, No Sample 1, Control− 1) is 1; in series [2] (Poly(I:C)/LyoVec 500 ng/mL, No Sample 9, Control− 1), 10; in series [2] (hIFNα 100 IU/mL, No Sample 255, Control− 1, listed as Ami), 192; in series [3] (5′ppp-dsRNA/LyoVec 500 ng/mL, No Sample 6, Control− 1), 6; in series [3] (Poly(I:C)/LyoVec 500 ng/mL, No Sample 16, Control− 1), 16. Moreover, the side effects entry in series [4] was “drowsiness, dry mouth, blurred vision, pupil dilation, constipation, weight and urinary retention”.

(Values after patent US11400059B2, “Treatment of pain and/or pain related symptoms associated with dysmenorrhea” (ALYRA BIOTECH PTY LTD, priority 2017, dated 2022).)
